In patent publication US20160235752A1, “COMPOSITIONS, METHODS OF USE, AND METHODS OF TREATMENT” (THE UNIVERSITY OF NEW ORLEANS, priority 2013, published 2016):
Values after ≈ are worked out from the molar mass of the structure shown.

Experiments:
[1] = test system: Candida albicans (ATCC no. 10231); experiment: MIC determination by broth microdilution (NCCLS), visual scoring; assay type: cell-based; conditions: for MIC80: Candida albicans, ATCC10231, read-out: MIC80 C. albicans
Description: The antifungal activity of the 2,4,6-pyrimidinetrione analogs shown in Schemes 2-6 were evaluated in vitro using Candida albicans (ATCC no. 10231) and Candida glabrata (ATCC no 48435). All assays were done in accordance with NCCLS reference documents^29.
(§1) Master stock concentrations of all tested compounds were prepared to ensure that the maximum final concentration of DMSO was 1% or less. Subsequent 2-fold serial dilutions were made using sterile water to a final concentration of 1280-5.00 μg/ml. A final 10-fold dilution of each drug was made by aliquotting 0.1 mL of each drug dilution into 0.9 mL of fungal suspension in RPMI 1640 media with 10 mM HEPES buffer added (see methodology below), giving final concentrations tested in the range of 128-0.5 μg/ml.
(§2) Antifungal susceptibility studies and minimal inhibitory concentrations (MIC) values for Candida albicans (ATCC no. 10231) and Candida glabrata (ATCC no. 48435) were determined by the broth microdilution technique in accordance with NCCLS reference documents. Microdilution panels ranged from 0.5 to 128 μg/mL. All organisms were subcultured on Sabouraud agar and passaged to ensure purity and viability. The initiating inocula were prepared by picking 5-7 isolated colonies ˜1 mm in diameter from freshly prepared YM agar plates. Colonies were resuspended in sterile water, vortexed and the cell density was adjusted spectrophotometrically to the transmittance of a 0.5 McFarland standard at a wavelength of 530 nm, to yield a stock suspension of 1×10^6-5×10^6 cells/mL. The stock was allowed to hydrate for 30 minutes at room temperature. A working suspension was then made by diluting the stock 1:50 with RPMI 1640 media containing HEPES buffer. The working suspension was used for all assays. The plates were incubated at 35° C. for 48-72 hours in a humid atmosphere. Growth was scored visually. MIC values are defined as the lowest concentration of agent that prevents any discernible growth, ˜80% reduction of growth, as compared with drug-free control wells. All assays were run in parallel using either fluconazole or amphotericin B at the NCCLS recommended concentrations^29 as a drug control (Sigma-Aldrich).

[2] = test system: Candida glabrata (ATCC no. 48435); experiment: as above; assay type: cell-based; conditions: for MIC80: Nakaseomyces glabratus, ATCC48435, read-out: MIC80 C. glabrata
Description: The antifungal activity of the 2,4,6-pyrimidinetrione analogs shown in Schemes 2-6 were evaluated in vitro using Candida albicans (ATCC no. 10231) and Candida glabrata (ATCC no 48435). All assays were done in accordance with NCCLS reference documents^29. The results of these screenings are summarized in Tables 1-9 as the minimal inhibitory concentrations that inhibited more than 80% fungal growth as compared to the positive controls in 1% DMSO and RPMI media. All MIC screens were done using a visual scoring method as opposed to spectroscopic methods of analysis, due to the physical properties of many of the compounds altering their absorbance spectra relative to the positive, negative and drug controls.
as §1, with “None of the compounds tested over the course of these studies were soluble in water and DMSO was used to dilute each compound tested. Master” for “Master”
as §2

[3] = Table 1, 5-Acyl-2,4,6-pyrimidinetriones, >80% growth inhibition, RPMI, 1% DMSO
[4] = Table 3, 5-Alkylated Pyrimidinetriones
[5] = Table 5, Schiff Bases of 5-acylpyrimidinetriones
[6] = Table 2, 5-Arylidene-2,4,6-pyrimidinetriones
[7] = Table 4, 5,5-Dialkylated Pyrimidinetriones
[8] = Table 8, N-Acylhydrazones of 5-Acylpyrimidinetriones

## O=C1NC(=O)C(C(=O)c2cccc([N+](=O)[O-])c2)C(=O)N1 [BA4]
[1]; [3]
  MIC80 C. albicans: — (none of the 5-acyl-2,4,6-pyrimidinetriones, 5-alkylated pyrimidinetriones or the 5,5-dialkylated pyrimidinetriones showed antifungal activity through 125 μg/mL)
[2]; [3]
  MIC80 C. glabrata: — (none of the 5-acyl-2,4,6-pyrimidinetriones, 5-alkylated pyrimidinetriones or the 5,5-dialkylated pyrimidinetriones showed antifungal activity through 125 μg/mL)

## O=C1NC(=O)C(C2CCCCC2)C(=O)N1 [BA62]
[1]; [4]
  MIC80 C. albicans: — (none of the 5-acyl-2,4,6-pyrimidinetriones, 5-alkylated pyrimidinetriones or the 5,5-dialkylated pyrimidinetriones showed antifungal activity through 125 μg/mL)
[2]; [4]
  MIC80 C. glabrata: — (none of the 5-acyl-2,4,6-pyrimidinetriones, 5-alkylated pyrimidinetriones or the 5,5-dialkylated pyrimidinetriones showed antifungal activity through 125 μg/mL)

## CN1C(=O)C(C=O)C(=O)N(C)C1=O [BA19, 1,3-dimethyl-2,4,6-trioxohexahydropyrimidine-5-carbaldehyde]
[1]
  MIC80: > 125 µg/mL
[2]
  MIC80: > 125 µg/mL

## CN1C(=O)C(C(=O)c2cc([N+](=O)[O-])cc([N+](=O)[O-])c2)C(=O)N(C)C1=O [BA9]
[1]; [3]
  MIC80 C. albicans: — (none of the 5-acyl-2,4,6-pyrimidinetriones, 5-alkylated pyrimidinetriones or the 5,5-dialkylated pyrimidinetriones showed antifungal activity through 125 μg/mL)
[2]; [3]
  MIC80 C. glabrata: — (none of the 5-acyl-2,4,6-pyrimidinetriones, 5-alkylated pyrimidinetriones or the 5,5-dialkylated pyrimidinetriones showed antifungal activity through 125 μg/mL)

## CC(=Nc1ccncc1)C1C(=O)N(C)C(=O)N(C)C1=O [BA84]
[1]; [5]
  MIC80 C. albicans: — (none of the 5-acyl-2,4,6-pyrimidinetriones, 5-alkylated pyrimidinetriones or the 5,5-dialkylated pyrimidinetriones showed antifungal activity through 125 μg/mL)
[2]; [5]
  MIC80 C. glabrata: — (none of the 5-acyl-2,4,6-pyrimidinetriones, 5-alkylated pyrimidinetriones or the 5,5-dialkylated pyrimidinetriones showed antifungal activity through 125 μg/mL)

## O=C1NC(=O)C(/C=N/Nc2ccccc2)C(=O)N1 [BA74, 5-[(E)-(2-phenylhydrazinylidene)methyl]pyrimidine-2,4,6-trione]
[1]
  MIC80: 4 µg/mL (≈ 16.2 µM)
[2]
  MIC80: 2 µg/mL (≈ 8.12 µM)

## CN(C)c1ccc(C=C2C(=O)NC(=O)NC2=O)cc1 [BA53]
[1]; [6]
  MIC80 C. albicans: 62 µg/mL (≈ 239 µM)
[2]; [6]
  MIC80 C. glabrata: — (none of the 5-acyl-2,4,6-pyrimidinetriones, 5-alkylated pyrimidinetriones or the 5,5-dialkylated pyrimidinetriones showed antifungal activity through 125 μg/mL)

## O=C1NC(=O)C(=Cc2ccc3ccccc3c2)C(=O)N1 [BA40]
[1]; [6]
  MIC80 C. albicans: 125 µg/mL (≈ 469 µM)
[2]; [6]
  MIC80 C. glabrata: — (none of the 5-acyl-2,4,6-pyrimidinetriones, 5-alkylated pyrimidinetriones or the 5,5-dialkylated pyrimidinetriones showed antifungal activity through 125 μg/mL)

## CN1C(=O)C(C(=O)c2ccccc2)C(=O)N(C)C1=O [BA3, 5-benzoyl-1,3-dimethylpyrimidine-2,4,6-trione]
[1]
  MIC80: > 125 µg/mL
[2]
  MIC80: > 125 µg/mL

## CN(C)c1ccc(CC2(Cc3ccc(N(C)C)cc3)C(=O)NC(=O)NC2=O)cc1 [BA71]
[1]; [7]
  MIC80 C. albicans: — (none of the 5-acyl-2,4,6-pyrimidinetriones, 5-alkylated pyrimidinetriones or the 5,5-dialkylated pyrimidinetriones showed antifungal activity through 125 μg/mL)
[2]; [7]
  MIC80 C. glabrata: — (none of the 5-acyl-2,4,6-pyrimidinetriones, 5-alkylated pyrimidinetriones or the 5,5-dialkylated pyrimidinetriones showed antifungal activity through 125 μg/mL)

## COC(=O)NN=C(c1ccc(O)cc1)C1C(=O)N(C)C(=O)N(C)C1=O [BA36]
[1]; [8]
  MIC80 C. albicans: — (none of the 5-acyl-2,4,6-pyrimidinetriones, 5-alkylated pyrimidinetriones or the 5,5-dialkylated pyrimidinetriones showed antifungal activity through 125 μg/mL)
[2]; [8]
  MIC80 C. glabrata: — (none of the 5-acyl-2,4,6-pyrimidinetriones, 5-alkylated pyrimidinetriones or the 5,5-dialkylated pyrimidinetriones showed antifungal activity through 125 μg/mL)

## O=C1NC(=O)C(Cc2ccc3ccccc3c2)C(=O)N1 [BA69]
[1]; [4]
  MIC80 C. albicans: — (none of the 5-acyl-2,4,6-pyrimidinetriones, 5-alkylated pyrimidinetriones or the 5,5-dialkylated pyrimidinetriones showed antifungal activity through 125 μg/mL)
[2]; [4]
  MIC80 C. glabrata: — (none of the 5-acyl-2,4,6-pyrimidinetriones, 5-alkylated pyrimidinetriones or the 5,5-dialkylated pyrimidinetriones showed antifungal activity through 125 μg/mL)

## O=C1NC(=O)C(=Cc2ccccc2O)C(=O)N1 [BA47, 5-(2-hydroxybenzylidene)pyrimidine-2,4,6-trione]
[1]
  MIC80: > 125 µg/mL
[2]
  MIC80: 8 µg/mL (≈ 34.5 µM)

## CN1C(=O)C(=CC=Cc2ccccc2)C(=O)N(C)C1=O [BA43]
[1]; [6]
  MIC80 C. albicans: 62 µg/mL (≈ 229 µM)
[2]; [6]
  MIC80 C. glabrata: 125 µg/mL (≈ 462 µM)

## CN(C)c1ccc(CC2(CCCc3ccccc3)C(=O)NC(=O)NC2=O)cc1 [BA72]
[1]; [7]
  MIC80 C. albicans: — (none of the 5-acyl-2,4,6-pyrimidinetriones, 5-alkylated pyrimidinetriones or the 5,5-dialkylated pyrimidinetriones showed antifungal activity through 125 μg/mL)
[2]; [7]
  MIC80 C. glabrata: — (none of the 5-acyl-2,4,6-pyrimidinetriones, 5-alkylated pyrimidinetriones or the 5,5-dialkylated pyrimidinetriones showed antifungal activity through 125 μg/mL)

## O=C1NC(=O)N(c2ccccc2)C(=O)C1C(=O)c1ccc(O)cc1 (centres unmarked) [BA13]
[1]; [3]
  MIC80 C. albicans: — (none of the 5-acyl-2,4,6-pyrimidinetriones, 5-alkylated pyrimidinetriones or the 5,5-dialkylated pyrimidinetriones showed antifungal activity through 125 μg/mL)
[2]; [3]
  MIC80 C. glabrata: — (none of the 5-acyl-2,4,6-pyrimidinetriones, 5-alkylated pyrimidinetriones or the 5,5-dialkylated pyrimidinetriones showed antifungal activity through 125 μg/mL)

## C/C(=N\Nc1ccccc1)C1C(=O)NC(=O)NC1=O [BA85, 5-[(1E)-1-(2-phenylhydrazinylidene)ethyl]pyrimidine-2,4,6-trione]
[1]
  MIC80: 2 µg/mL (≈ 7.68 µM)
[2]
  MIC80: 2 µg/mL (≈ 7.68 µM)

## O=C1NC(=O)C(Cc2ccccc2)(Cc2ccccc2)C(=O)N1 [BA70]
[1]; [7]
  MIC80 C. albicans: — (none of the 5-acyl-2,4,6-pyrimidinetriones, 5-alkylated pyrimidinetriones or the 5,5-dialkylated pyrimidinetriones showed antifungal activity through 125 μg/mL)
[2]; [7]
  MIC80 C. glabrata: — (none of the 5-acyl-2,4,6-pyrimidinetriones, 5-alkylated pyrimidinetriones or the 5,5-dialkylated pyrimidinetriones showed antifungal activity through 125 μg/mL)

## O=C1NC(=O)C(=Cc2ccoc2)C(=O)N1 [BA55]
[1]; [6]
  MIC80 C. albicans: — (none of the 5-acyl-2,4,6-pyrimidinetriones, 5-alkylated pyrimidinetriones or the 5,5-dialkylated pyrimidinetriones showed antifungal activity through 125 μg/mL)
[2]; [6]
  MIC80 C. glabrata: — (none of the 5-acyl-2,4,6-pyrimidinetriones, 5-alkylated pyrimidinetriones or the 5,5-dialkylated pyrimidinetriones showed antifungal activity through 125 μg/mL)

## CN/N=C(\C)C1C(=O)NC(=O)NC1=O [BA121, 5-[(1E)-1-(2-methylhydrazinylidene)ethyl]pyrimidine-2,4,6-trione]
[1]
  MIC80: > 125 µg/mL

## CC(=NNC(=O)c1ccc([N+](=O)[O-])cc1)C1C(=O)NC(=O)NC1=O [BA130]
[1]; [8]
  MIC80 C. albicans: — (none of the 5-acyl-2,4,6-pyrimidinetriones, 5-alkylated pyrimidinetriones or the 5,5-dialkylated pyrimidinetriones showed antifungal activity through 125 μg/mL)

## COc1ccc(N=CC2C(=O)N(C)C(=O)N(C)C2=O)cc1 [BA98]
[1]; [5]
  MIC80 C. albicans: — (none of the 5-acyl-2,4,6-pyrimidinetriones, 5-alkylated pyrimidinetriones or the 5,5-dialkylated pyrimidinetriones showed antifungal activity through 125 μg/mL)
